Measurements published in patent US20160175288A1, “MACROCYCLIC LACTONE COMPOUNDS AND METHODS FOR THEIR USE” (Elixir Medical Corporation, priority 2008, published 2016).

How the values were obtained:
human smooth muscle cell = assay: in vitro human smooth muscle cell culture testing, incorporated thymidine; format: cell-based; settings: exposure for 8 hours, concentrations 0.0001-1 μM
Experimental: The amounts of incorporated thymidine for samples of Myolimus of varying concentrations (0.0001, 0.001, 0.01, 0.1, and 1 μM) and of rapamycin of varying concentrations (0.0001, 0.001, 0.01, 0.1, and 1 μM) were measured after exposure for 8 hours (as shown in FIG. 1). The IC50 of both Myolimus and Rapamycin was 0.1 nM indicating potent anti-proliferative properties.

MMP-9 = assay: cytokine inhibition in LPS-activated macrophages, ELISA (MMP-9); format: cell-based; settings: 10 nM
Experimental: (§1) In cell culture studies, macrophages were activated to secrete cytokines such as MMP-9 and MCP-1 by treating the cells to E Coli lippopolysaccharide (LPS). Inhibition of these cytokines upon treatment of the activated macrophages with Myolimus and rapamycin with 10 nM concentration was tested using ELISA assay.

MCP-1 = assay: cytokine inhibition in LPS-activated macrophages, ELISA (MCP-1); format: cell-based; settings: 10 nM
Experimental: as §1

[1] = cited from earlier work
[2] = in vivo; cited from earlier work

IC50 (human smooth muscle cell) [nM]	SMILES	production of MMP-9 (MMP-9)	production of MMP-9 (MMP-9; listed as myolimus)	production of MCP-1 (MCP-1)	production of MCP-1 (MCP-1; listed as myolimus)	solubility in water [1]	bioavailability [2]
0.1	CO[C@H]1C[C@@H]2CC[C@@H](C)[C@@](O)(O2)C(=O)C(=O)N2CCCC[C@H]2C(=O)O[C@H]([C@H](C)C[C@@H]2CC[C@@H](O)[C@H](OC)C2)CC[C@H](C)/C=C(\C)[C@@H](O)[C@@H](OC)C(=O)[C@H](C)C[C@H](C)/C=C/C=C/C=C/1C [Myolimus, 32-deoxorapamycin]	reduced the production	inhibiting production	reduced the production	inhibiting the production		
0.1	CO[C@H]1C[C@@H]2CC[C@@H](C)[C@@](O)(O2)C(=O)C(=O)N2CCCC[C@H]2C(=O)O[C@H]([C@H](C)C[C@@H]2CC[C@@H](O)[C@H](OC)C2)CC(=O)[C@H](C)/C=C(\C)[C@@H](O)[C@@H](OC)C(=O)[C@H](C)C[C@H](C)/C=C/C=C/C=C/1C [Rapamycin]	increased the production		did not have any impact		only very slightly soluble	very low and variable
